Laboratory results reported in ChEMBL document CHEMBL1687697 (ACS Med Chem Lett, 2010).
Active and inactive are the calls of the source. The calls are words filed in the database; no cut-off is given here.

How the values were obtained:
[1] = biological target: Signal transducer and activator of transcription 3 (Homo sapiens) (UniProt P40763); test: Inhibition of STAT3 in human HeLa cells at 5 uM after 24 hrs by luciferase reporter gene assay; assay type: cell-based
[2] = biological target: Signal transducer and activator of transcription 3 (Homo sapiens) (UniProt P40763); test: Inhibition of STAT3 in human HeLa cells after 24 hrs by luciferase reporter gene assay; assay type: cell-based

Sequence of Signal transducer and activator of transcription 3 (Homo sapiens) (P40763 whole entry): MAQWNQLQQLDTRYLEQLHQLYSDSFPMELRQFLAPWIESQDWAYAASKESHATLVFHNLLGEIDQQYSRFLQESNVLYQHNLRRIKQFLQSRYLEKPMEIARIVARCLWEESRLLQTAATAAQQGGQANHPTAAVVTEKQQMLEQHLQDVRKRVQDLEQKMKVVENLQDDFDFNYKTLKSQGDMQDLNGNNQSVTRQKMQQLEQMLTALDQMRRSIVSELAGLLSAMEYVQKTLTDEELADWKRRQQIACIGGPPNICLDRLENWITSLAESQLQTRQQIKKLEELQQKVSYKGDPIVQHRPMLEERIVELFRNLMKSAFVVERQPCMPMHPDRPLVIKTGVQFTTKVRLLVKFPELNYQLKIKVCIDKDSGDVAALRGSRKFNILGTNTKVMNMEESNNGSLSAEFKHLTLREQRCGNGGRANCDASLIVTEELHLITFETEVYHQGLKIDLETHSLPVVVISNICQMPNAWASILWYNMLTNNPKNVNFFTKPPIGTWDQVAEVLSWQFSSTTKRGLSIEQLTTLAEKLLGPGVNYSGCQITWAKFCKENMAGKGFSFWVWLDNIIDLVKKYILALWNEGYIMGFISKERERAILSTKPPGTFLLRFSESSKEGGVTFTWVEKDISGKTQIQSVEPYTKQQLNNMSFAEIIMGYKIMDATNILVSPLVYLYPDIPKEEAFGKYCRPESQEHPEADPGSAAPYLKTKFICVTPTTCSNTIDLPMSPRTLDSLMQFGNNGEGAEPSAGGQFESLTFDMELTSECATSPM

Compound	inhibition [1]	inhibition [2]
CCOC(=O)c1c(CSc2ccccc2)n(C)c2cc(Br)c(O)c(CN(C)C)c12	inactive	
COc1ccc(C(=O)N2CCCC2=O)cc1		inactive
